# Reference: patent publication US10350213B2 (AI Therapeutics, Inc., priority 2015, dated 2019)
# Read-outs that look alike come from different tables or passages of the source.
# Assays:
# [1] = active Crohn's disease; Sands et al. 2010; cited from earlier work
# [2] = test system: NCI-H1781 (Human bronchioalveolar); test: CellTiterGlo cell viability assay; format: cell-based
# [3] = test system: Jurkat (Human T-cell leukemia); test: CellTiterGlo cell viability assay; format: cell-based
# PIKfyve = target: T1, PIKfyve (Homo sapiens, UniProt Q9Y2I7); test: Chemical capture mass spectrometry (CCMS); format: binding; conditions: apilimod as competitor ligand
# T1 construct: whole cell lysate prepared from human neuroglioma cells; endogenous in cells; host or cells: human neuroglioma cells (whole cell lysate)
# Procedure: (§1) This work was performed at Caprotec Bioanalytics GmbH, Berlin Germany. See Michaelis et al., J. Med. Chem., 55 3934-44 (2012) and references cited therein. […] Capture conditions were optimized in whole cell lysate, e.g. minimization of non-specific interactions of the proteins with capture compounds, concentration of reagents and proteins to obtain maximum binding of proteins and capture compounds, etc. […] These specific binders were further subjected to stringent data analysis criteria to determine specificity after unbiased data evaluation. Specific protein binders were ranked according to their fold change (FC) values in the capture experiments.
# Vac14 = target: T2, Vac14 (Homo sapiens, UniProt Q08AM6); test: Chemical capture mass spectrometry (CCMS); format: binding; conditions: apilimod as competitor ligand
# T2 construct: whole cell lysate prepared from human neuroglioma cells; endogenous in cells; host or cells: human neuroglioma cells (whole cell lysate)
# Procedure: as §1
# all cell lines = test: Longer cell viability assays (3, 5, and 7 days); format: cell-based; conditions: 168 h, 7-day exposure
# Text: (§2) This is exemplified in FIG. 2A for the HCT116 colorectal carcinoma cells. […] And all NHL subtypes were sensitive in this assay, including mantle, follicular, Burkitt's, DLBCL-ABC, DLBCL-GCB, and double-hit DLBCL.
# [4] = test system: TSC2−/− mouse embryonic fibroblasts (TSC2−/− MEF) cells; test: High throughput cell viability screen (CellTiter-Glo); format: cell-based; conditions: 72 h
# Procedure: Briefly, test compounds (5 μl stock solution, 6×desired final well concentration) were dispensed to 384-well assay plates, TSC2−/− MEF cells (1000 cells per well in 25 μL of media) were added to the plates and the plates were incubated for 72 h (3 days) at 37° C. under an atmosphere of 5% CO2 in a humidified incubator for 3 days. Cell viability was determined with CellTiter-Glo® luminescence assay (Promega) per the manufacturer's instructions. Viability was expressed as a percentage of untreated control cells.
# [5] = test system: RPMI-8226 (Human plasmacytoma); test: CellTiterGlo cell viability assay; format: cell-based
# [6] = test system: SUDHL-6 human DLBCL cancer xenograft; test: Subcutaneous SUDHL-6 human DLBCL cancer xenograft model; format: in vivo, NOD-SCID mice
# Procedure: The tumor cells were sub-cultured twice weekly and harvested during exponential growth for tumor inoculation. NOD-SCID mice were γ-irradiated 24 hrs before inoculation. Each mouse was inoculated subcutaneously in the right flank with SU-DHL-6 tumor cells (5×10^6) in 0.1 ml of PBS with Matrigel (1:1). The tumors were then grown to a mean size of approximately 80-120 mm^3 and the mice were then split into 5 groups and treated as detailed in the Table 5.
# Tumor size was measured twice a week in two dimensions using a caliper, and the volume is expressed in mm^3 using the formula: V=0.5 a×b^2 where a and b are the long and short diameters of the tumor, respectively.
# Each mouse was inoculated subcutaneously in the right flank with SU-DHL-6 tumor cells (5×10^6) in 0.1 ml of PBS with Matrigel (1:1). The tumors were then grown to a mean size of approximately 80-120 mm^3 and the mice were then split into 6 groups and treated as detailed in the Table 6.
# [7] = test system: 456 kinases (PIKfyve not included); test: Kinase panel binding screen (DiscoveRx); conditions: screening concentration 1 μM
# Text: Next, apilimod was screened against a comprehensive panel of kinases (PIKfyve not included).
# [8] = test system: MiaPaCa-2 (Human pancreatic cancer); test: CellTiterGlo cell viability assay; format: cell-based; conditions: MIA PaCa-2
# [9] = test system: M0591K (Human neuroblastoma); test: CellTiterGlo cell viability assay; format: cell-based
# [10] = test system: 22RV1 (Human prostate cancer); test: CellTiterGlo cell viability assay; format: cell-based
# [11] = test system: A549 (Human lung carcinoma); test: CellTiterGlo cell viability assay; format: cell-based
# [12] = test system: LnCap (Human prostate cancer); test: CellTiterGlo cell viability assay; format: cell-based
# [13] = test system: SW780 (Human Bladder carcinoma (GATOR−/−)); test: CellTiterGlo cell viability assay; format: cell-based
# NHL cell lines = test: 7 day cell viability assay, NHL cell lines; format: cell-based; conditions: 7 day assay; for IC50: 168 h
# Text: as §2
# H4 (Human neuroglioma) = test: CellTiterGlo cell viability assay; format: cell-based
# [14] = test system: K562 (Human myelogenous leukemia); test: CellTiterGlo cell viability assay; format: cell-based
# H4 neuroglioma cells = test: Endolysosomal (vacuole) phenotype, DIC images; format: cell-based, Human; conditions: 100 nM apilimod, 24 hrs
# Text: PIKfyve produces the lipid products PI(3,5)P2 and PI5P, which in turn serve to establish membrane identity and control endolysosomal dynamics. Studies have shown that the PI(3,5)P2 depletion arising from inhibition of PIKfyve produces a swollen endolysosome phenotype. […] This phenotype was reversible, and cancer cell lines reverted to normal appearance within 3-4 days after drug removal.
# T1 sequence (Q9Y2I7 whole entry): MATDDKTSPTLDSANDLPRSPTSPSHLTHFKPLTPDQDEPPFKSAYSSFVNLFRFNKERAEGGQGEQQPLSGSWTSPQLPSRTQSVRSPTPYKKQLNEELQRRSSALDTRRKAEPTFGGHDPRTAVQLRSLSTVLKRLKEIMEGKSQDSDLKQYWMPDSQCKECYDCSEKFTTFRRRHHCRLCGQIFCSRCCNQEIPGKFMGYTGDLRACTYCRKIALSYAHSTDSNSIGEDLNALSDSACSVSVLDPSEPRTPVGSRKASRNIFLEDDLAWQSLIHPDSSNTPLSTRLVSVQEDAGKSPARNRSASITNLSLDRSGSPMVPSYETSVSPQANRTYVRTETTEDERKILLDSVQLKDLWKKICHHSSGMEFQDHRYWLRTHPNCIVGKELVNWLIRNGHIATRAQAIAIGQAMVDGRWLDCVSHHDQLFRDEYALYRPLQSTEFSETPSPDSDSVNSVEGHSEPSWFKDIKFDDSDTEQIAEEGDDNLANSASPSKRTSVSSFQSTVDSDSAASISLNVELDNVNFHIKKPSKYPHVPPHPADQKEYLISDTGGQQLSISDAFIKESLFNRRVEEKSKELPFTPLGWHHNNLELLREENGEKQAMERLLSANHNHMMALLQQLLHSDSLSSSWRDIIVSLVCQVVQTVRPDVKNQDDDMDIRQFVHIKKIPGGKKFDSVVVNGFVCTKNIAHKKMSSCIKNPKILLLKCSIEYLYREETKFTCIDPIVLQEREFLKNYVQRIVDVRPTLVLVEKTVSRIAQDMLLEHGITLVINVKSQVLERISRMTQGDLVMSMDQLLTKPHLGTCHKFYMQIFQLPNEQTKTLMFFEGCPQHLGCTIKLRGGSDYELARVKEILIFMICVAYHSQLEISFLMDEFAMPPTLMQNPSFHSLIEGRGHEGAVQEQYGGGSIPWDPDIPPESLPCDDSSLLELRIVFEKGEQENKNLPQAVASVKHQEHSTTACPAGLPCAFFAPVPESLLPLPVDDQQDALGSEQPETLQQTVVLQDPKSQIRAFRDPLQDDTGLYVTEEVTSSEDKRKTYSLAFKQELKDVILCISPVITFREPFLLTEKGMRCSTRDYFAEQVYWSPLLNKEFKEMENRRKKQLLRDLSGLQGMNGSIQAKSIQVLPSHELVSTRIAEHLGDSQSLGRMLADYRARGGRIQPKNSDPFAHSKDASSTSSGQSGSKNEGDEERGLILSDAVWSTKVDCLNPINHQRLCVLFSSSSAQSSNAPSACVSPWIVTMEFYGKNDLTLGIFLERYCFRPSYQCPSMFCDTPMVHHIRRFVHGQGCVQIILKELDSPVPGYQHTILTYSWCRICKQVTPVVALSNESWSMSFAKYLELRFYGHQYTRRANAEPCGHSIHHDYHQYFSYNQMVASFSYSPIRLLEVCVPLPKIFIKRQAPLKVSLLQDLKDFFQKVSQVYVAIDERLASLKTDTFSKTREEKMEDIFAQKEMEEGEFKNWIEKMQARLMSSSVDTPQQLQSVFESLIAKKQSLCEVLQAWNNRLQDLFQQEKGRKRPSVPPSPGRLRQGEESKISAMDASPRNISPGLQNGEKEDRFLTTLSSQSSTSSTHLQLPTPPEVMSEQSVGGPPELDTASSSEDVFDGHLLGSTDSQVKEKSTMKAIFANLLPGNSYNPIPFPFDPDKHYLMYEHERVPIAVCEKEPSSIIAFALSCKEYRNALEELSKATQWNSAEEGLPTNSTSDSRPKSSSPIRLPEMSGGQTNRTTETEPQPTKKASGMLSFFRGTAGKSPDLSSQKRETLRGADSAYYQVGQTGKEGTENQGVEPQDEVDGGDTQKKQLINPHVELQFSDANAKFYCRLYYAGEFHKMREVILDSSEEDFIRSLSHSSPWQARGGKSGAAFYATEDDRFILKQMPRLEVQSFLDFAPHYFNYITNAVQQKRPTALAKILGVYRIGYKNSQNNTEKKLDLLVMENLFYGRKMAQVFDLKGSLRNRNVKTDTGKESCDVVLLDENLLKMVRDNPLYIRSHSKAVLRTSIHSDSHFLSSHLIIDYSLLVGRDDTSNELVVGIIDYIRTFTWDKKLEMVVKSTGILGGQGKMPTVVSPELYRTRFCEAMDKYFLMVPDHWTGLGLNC
# T2 sequence (Q08AM6 whole entry): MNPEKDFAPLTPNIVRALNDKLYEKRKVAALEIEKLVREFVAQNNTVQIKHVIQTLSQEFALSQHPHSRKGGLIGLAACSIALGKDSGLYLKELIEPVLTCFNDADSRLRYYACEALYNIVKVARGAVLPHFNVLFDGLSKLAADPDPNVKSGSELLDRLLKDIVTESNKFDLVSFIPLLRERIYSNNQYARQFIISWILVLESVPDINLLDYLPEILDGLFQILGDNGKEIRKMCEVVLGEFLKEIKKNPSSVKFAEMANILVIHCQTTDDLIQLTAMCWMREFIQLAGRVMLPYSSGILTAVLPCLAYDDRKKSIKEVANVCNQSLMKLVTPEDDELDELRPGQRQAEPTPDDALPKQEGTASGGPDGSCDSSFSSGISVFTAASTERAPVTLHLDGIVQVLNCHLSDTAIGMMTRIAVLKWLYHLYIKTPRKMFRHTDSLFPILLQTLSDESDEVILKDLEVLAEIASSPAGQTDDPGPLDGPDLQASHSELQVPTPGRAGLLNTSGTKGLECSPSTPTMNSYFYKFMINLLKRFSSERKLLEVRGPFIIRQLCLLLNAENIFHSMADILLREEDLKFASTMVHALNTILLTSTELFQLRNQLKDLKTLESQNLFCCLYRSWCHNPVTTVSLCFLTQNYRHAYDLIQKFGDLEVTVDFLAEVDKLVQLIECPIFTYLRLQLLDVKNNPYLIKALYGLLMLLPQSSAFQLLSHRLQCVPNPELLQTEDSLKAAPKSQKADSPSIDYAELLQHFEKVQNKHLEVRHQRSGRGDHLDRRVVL
# T2 sequence (Q9Y2I7 2-2098 partner): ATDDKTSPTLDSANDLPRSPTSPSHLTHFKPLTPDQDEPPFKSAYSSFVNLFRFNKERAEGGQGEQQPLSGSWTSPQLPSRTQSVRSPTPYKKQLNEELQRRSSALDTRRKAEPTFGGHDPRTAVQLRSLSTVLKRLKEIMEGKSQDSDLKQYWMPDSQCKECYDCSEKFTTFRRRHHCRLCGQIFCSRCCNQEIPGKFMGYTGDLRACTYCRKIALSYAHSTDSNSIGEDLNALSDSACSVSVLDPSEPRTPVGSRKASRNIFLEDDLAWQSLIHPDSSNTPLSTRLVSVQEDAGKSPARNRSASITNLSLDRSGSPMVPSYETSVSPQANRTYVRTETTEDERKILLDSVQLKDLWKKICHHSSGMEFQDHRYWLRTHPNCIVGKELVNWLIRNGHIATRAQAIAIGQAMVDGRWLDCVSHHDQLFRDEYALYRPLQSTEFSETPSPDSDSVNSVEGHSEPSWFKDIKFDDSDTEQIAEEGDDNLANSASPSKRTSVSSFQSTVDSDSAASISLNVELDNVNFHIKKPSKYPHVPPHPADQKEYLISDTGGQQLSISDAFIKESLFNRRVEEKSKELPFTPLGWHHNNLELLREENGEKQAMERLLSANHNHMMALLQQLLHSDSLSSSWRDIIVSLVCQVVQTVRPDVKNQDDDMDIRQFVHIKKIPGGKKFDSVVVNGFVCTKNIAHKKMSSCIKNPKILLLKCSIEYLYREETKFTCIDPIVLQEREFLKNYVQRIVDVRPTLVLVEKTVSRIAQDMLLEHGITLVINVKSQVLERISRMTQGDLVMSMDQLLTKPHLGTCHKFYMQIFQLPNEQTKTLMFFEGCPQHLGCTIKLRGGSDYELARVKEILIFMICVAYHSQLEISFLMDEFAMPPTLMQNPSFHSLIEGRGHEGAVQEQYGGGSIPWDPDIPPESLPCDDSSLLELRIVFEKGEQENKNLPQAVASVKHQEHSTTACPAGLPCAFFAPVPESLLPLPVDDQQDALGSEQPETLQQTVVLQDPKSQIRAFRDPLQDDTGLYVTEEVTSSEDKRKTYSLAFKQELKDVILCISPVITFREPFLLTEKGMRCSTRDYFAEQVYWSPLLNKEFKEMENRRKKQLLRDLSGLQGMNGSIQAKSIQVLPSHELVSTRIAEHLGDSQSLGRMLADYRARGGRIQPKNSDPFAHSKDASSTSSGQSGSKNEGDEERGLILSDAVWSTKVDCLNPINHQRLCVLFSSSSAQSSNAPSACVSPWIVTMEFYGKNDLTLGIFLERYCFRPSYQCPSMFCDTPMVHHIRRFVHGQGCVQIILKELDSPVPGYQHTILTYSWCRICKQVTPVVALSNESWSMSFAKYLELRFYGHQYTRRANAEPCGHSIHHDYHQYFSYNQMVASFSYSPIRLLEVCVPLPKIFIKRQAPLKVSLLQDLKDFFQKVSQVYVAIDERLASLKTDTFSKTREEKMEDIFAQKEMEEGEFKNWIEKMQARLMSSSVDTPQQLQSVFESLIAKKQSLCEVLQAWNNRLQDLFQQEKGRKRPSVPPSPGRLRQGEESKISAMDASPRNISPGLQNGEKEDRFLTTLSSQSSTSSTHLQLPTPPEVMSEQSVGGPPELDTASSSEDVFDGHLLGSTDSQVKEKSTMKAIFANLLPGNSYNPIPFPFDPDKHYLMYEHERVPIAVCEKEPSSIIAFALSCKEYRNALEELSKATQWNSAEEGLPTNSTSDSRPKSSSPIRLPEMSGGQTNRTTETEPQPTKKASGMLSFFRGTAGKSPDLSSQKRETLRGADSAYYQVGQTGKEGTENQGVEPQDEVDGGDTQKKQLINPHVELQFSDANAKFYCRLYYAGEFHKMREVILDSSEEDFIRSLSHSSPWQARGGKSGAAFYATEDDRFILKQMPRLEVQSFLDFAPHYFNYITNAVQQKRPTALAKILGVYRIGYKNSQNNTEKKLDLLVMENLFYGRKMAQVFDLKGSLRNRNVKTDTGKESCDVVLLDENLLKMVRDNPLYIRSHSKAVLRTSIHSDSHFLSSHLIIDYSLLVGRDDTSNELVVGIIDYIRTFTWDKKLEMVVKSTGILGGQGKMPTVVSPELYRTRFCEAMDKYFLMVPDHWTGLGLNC
smiles,measurement,setting,value
Cc1cccc(/C=N/Nc2cc(N3CCOCC3)nc(OCCc3ccccn3)n2)c1 [apilimod],efficacy over placebo,[1],did not demonstrate efficacy over placebo
same,tolerability,[1],well tolerated
same,IC50,[2],> 20000 nM
same,IC50,[3],200 nM
same,log2 (FC),"PIKfyve; capture compound 0.1 μM, human neuroglioma whole cell lysate",6.3
same,log2 (FC),PIKfyve; capture compound 0.5 μM,6.2
same,log2 (FC),PIKfyve; capture compound 1.0 μM,4.1
same,log2 (FC),PIKfyve; capture compound 2.0 μM,4.3
same,log2 (FC),Vac14; capture compound 0.1 μM,6.2
same,log2 (FC),Vac14; capture compound 0.5 μM,5.6
same,log2 (FC),Vac14; capture compound 1.0 μM,Inf.
same,log2 (FC),Vac14; capture compound 2.0 μM,3.9
same,IC50,all cell lines,< 125 nM
same,viability at 0.5 µM,"[4]; MEF-EV, 0.5 μM, Mean+/−StDev, n=3, read-out: cell viability (percentage of untreated control cells)",2.16%
same,viability at 5 µM,"[4]; MEF-EV, 5 μM, Mean+/−StDev, n=3, read-out: cell viability (percentage of untreated control cells)",1.94%
same,IC50,"[4]; TSC2−/− MEF cells, 10 point dose-response",19.5 nM
same,IC50,[5],> 10000 nM
same,tumor growth inhibition,"[6]; 75 mg/kg apilimod free base p.o. QD×5, 2 days off, QD×5, 31 days",57%
same,effect on body weight,"[6]; all apilimod treatment arms, i.v. and p.o., 29 days",negligible effect on body weight
same,reduction of tumor size,"[6]; apilimod dimesylate 67.5 mg/kg (47 mg/kg free base) i.v. QD×5, 2 days off, QD×5, 29 days",58%
same,reduction of tumor growth,"[6]; apilimod free base p.o. 150 mg/kg single dose (QD×5, 2 days off), 29 days",64%
same,reduction of tumor growth,"[6]; apilimod free base p.o. 150 mg/kg split dose (75 mg/kg BID×5, 2 days off, BID×5), 29 days",68%
same,binding to kinase panel,[7],did not bind to any of the 456 kinases tested
same,IC50,[8],> 2000 nM
same,IC50,[9],> 10000 nM
same,IC50,[10],> 5000 nM
same,IC50,[11],110 nM
same,IC50,[12],3000 nM
same,IC50,[13],1000 nM
same,share of NHL cell lines sensitive to apilimod,NHL cell lines; 32 NHL cell lines tested,72%
same,IC50,"NHL cell lines; different NHL subtypes, read-out: IC50",< 125 nM
same,IC50,"NHL cell lines; sensitive NHL cell lines, read-out: average IC50",69 nM
same,IC50,H4 (Human neuroglioma),250 nM
same,IC50,[14],> 5000 nM
same,cell phenotype,H4 neuroglioma cells,striking swollen endolysosomal (vacuole) phenotype
